Test results: US11033559B2, “Leukocyte infiltration promoting agent and antitumor immunostimulatory agent” (OSAKA UNIVERSITY, priority 2015, dated 2021)

Experiments:
Assay type in all cases: in vivo
LLC cells = test: Antitumor effect of combined use of LPA and immune checkpoint inhibitor; settings: LLC-bearing mice; LPA 3 mg/kg i.p. day 6 to day 20; anti-PD-1 antibody 100 μg/mouse i.p. on days 7, 9, 11, 14, 16, 18; volume until day 21
Procedure: LLC cells (1×10^6 cells in 100 μL PBS per animal) were subcutaneously injected into C57BL/6 NCrSlc mice aged 8 weeks (females) in the same manner as in Reference Example 1. On day 6 post-inoculation, LLC-bearing mice that had developed a tumor with a volume of 30 to 40 mm^3 (volume=length×width×height×0.5) were selected. The mice were divided into four groups: a control group, an LPA administration group, an anti-PD-1 antibody administration group and an LPA plus anti-PD-1 antibody administration group, and subjected to the experiment. To the LPA administration group and to the LPA plus anti-PD-1 antibody administration group, LPA (3 mg/kg/100 μL) was intraperitoneally administered consecutively from day 6 through day 20 post-inoculation of the tumor cells. In the anti-PD-1 antibody administration group and in the LPA plus anti-PD-1 antibody administration group, anti-PD-1antibody therapy was started from day 7 post-inoculation of the tumor cells. Specifically, an anti-mouse PD-1 antibody (Clone: RMP1-14, BioXcell, BE0146) was intraperitoneally administered at a dose of 100 μg/mouse on day 7, day 9, day 11, day 14, day 16 and day 18 post-inoculation of the tumor cells. […] Tumor volume was measured over time until day 21.

LLC tumor in mice = test: Drug (doxorubicin) delivery from tumor blood vessels to tumor tissues after LPA administration; settings: LLC-bearing mice, LPA 3 mg/kg i.p., doxorubicin 1.5 mg/kg via tail vein 24 hours later, tumors harvested at 20 minutes
Description: As is commonly known, low blood flow and vascular hyperpermeability are the hallmarks of tumors. These cause an increase in tumor interstitial fluid pressure, leading to no difference in osmotic pressure between the tumor parenchyma and the blood vessels. This condition is a great obstacle to substance penetration from the vascular lumen to tumor tissues. Based on the above results showing that LPA administration induces a dense network formation of tumor blood vessels with a smooth luminal surface, it was hypothesized that LPA administration would improve drug penetration from tumor blood vessels. To examine drug penetration into tumors after LPA administration, the following experiments were conducted.
LLC cells were subcutaneously inoculated into C57BL/6 NCrSlc mice aged 8 weeks (females, SLC, Inc.) in the same manner as in Reference Example 1. An LPA solution for administration was prepared in the same manner as in Reference Example 1. On day 11 post-inoculation, LLC-bearing mice that had developed a tumor with a volume of 100 to 120 mm^3 were selected. The mice were divided into two groups: a control group and an LPA group (n=3 per group). After grouping, LPA (3 mg/kg/100 μL) or PBS (100 μL) was intraperitoneally administered to the mice. […] Doxorubicin is a fluorescent anticancer drug that can be detected at an excitation wavelength of 480 nm and a measurement wavelength of 575 nm. […]

[1] = tested on: luminal surface of tumor blood vessels in LLC tumor-bearing mice; test: Structural changes in lumina of tumor blood vessels (scanning electron microscopy); settings: 3 mg/kg intraperitoneally, 24 hours after administration, scanning electron microscope
Procedure: LLC cells were subcutaneously inoculated into C57BL/6 NCrSlc mice aged 8 weeks (females, SLC, Inc.) in the same manner as in Reference Example 1. An LPA solution for administration was prepared in the same manner as in Reference Example 1. LLC-bearing mice on day 9 post-inoculation (animals with a tumor volume of 60 to 80 mm^3) were subjected to the experiment. The mice were divided into two groups: a control group and an LPA group (n=3 per group). After grouping, LPA (3 mg/kg/100 μL) or PBS (100 μL) was intraperitoneally administered to the mice. At 24 hours after LPA or PBS administration, the mice were fixed by perfusion with a fixative under anesthesia with pentobarbital (Kyoritsu Seiyaku Corporation). The fixative used was 0.1 M phosphate buffer (pH 7.4) containing 2% formaldehyde and 2.5% glutaraldehyde. After the fixation by perfusion, the tumors were harvested, immersed in the same fixative as used for perfusion, and shaken at 4° C. overnight. The tumors were further immersed in 0.1 M phosphate buffer (pH 7.4) containing 1% osmium tetroxide and 0.5% potassium ferrocyanide for fixation. The tumors were dehydrated in an ascending series of ethanol, then the alcohol was replaced with t-butyl alcohol, and the tumors were freeze-dried.

For lysophosphatidic acid [LPA], the “inhibition of tumor growth (tumor volume) versus control group” value (LLC cells) was “slightly inhibited tumor growth”, the “penetration of doxorubicin into tumors” value (LLC tumor in mice) was “delivery of doxorubicin from tumor blood vessels to the deep part of the tumor was observed” and the “luminal surface of tumor blood vessels” value [1] was “very smooth luminal surface”.
